From US20220397566A1, “GAMMA-SECRETASE STABILIZING COMPOUND SCREENING ASSAY” (VIB VZW, priority 2019, published 2022)
Where two headings read alike, the source gives them in different places.

Columns and labels:
Type in all cases: cell-based, mouse
NCT = experiment: Cell surface biotinylation internalization assay, NCT; conditions: DAPT 1 μM
Method: All reagents, except otherwise stated, were kept on ice. Cells (450.000 cells for 1 h kinetic and 300.000 cells for 16 h) were plated on 6-cm dishes. 48 h after plating, cells were placed on ice, washed in PBS (pH 8) and next incubated in PBS (pH 8) supplemented with 0.25 mg/ml sulfo-NHS-SS-Biotin (Pierce) (10 min at 4° C.). Excess of biotin was washed out with PBS and cells were incubated in quench buffer (0.5% BSA, 100 mM Glycine in PBS) for 15 min at 4° C. Cells were then washed with PBS and incubated at 37° C. in complete pre-warmed medium (with or without DAPT 1 μM) for the appropriate time or kept at 4° C. as a control. Endocytosis was quickly stopped by placing the dishes back on ice and washing the cells with ice-cold PBS. Remaining biotin at the cell surface was cleaved off by incubating the cells twice in PBS containing 100 mM 2-sodium-2-mercaptoethanesulfonate (Sigma) as a reducing agent (15 min at 4° C.). […] Total protein was measured and biotinylated proteins were pulled down from equal amounts of extracts using streptavidin Sepharose beads (Pierce) (4° C., overnight on a rotation wheel). […] To evaluate the internalized pool for each protein to total cell surface, the (R37-R0)/NR*100 ratio for each time point were quantified. For the 16 h time point, the R37/NR*100 were quantified for each condition. […]

PSEN2/g-secretase = target: T1, PSEN2/g-secretase (Homo sapiens, UniProt P49810); experiment: Localisation of GFP-PSEN2/g-secretase in LAMP1-positive organelles (confocal); conditions: 1 μM, 16 hrs; dKO MEFs rescued with EGFP-PSEN2
T1 construct: expressed in transfected cells
Method: (§1) We now questioned whether g-secretase inhibitors would affect subcellular distribution of g-secretase complexes as well. We made use of mouse embryonic fibroblasts (MEFs) in which both PSEN1 an PSEN2 are knocked-out (dKO), rescued with either EGFP-PSEN1 or EGFP-PSEN2 (FIG. 1A). […] The dKO MEFs were then incubated overnight with N—[N-(3,5-difluorophenacetyl)-L-alanyl]-S-phenylglycine t-butyl ester (DAPT). DAPT is a non-transition state analogue (TSA) g-secretase inhibitor that is widely used (Dovey et al 2001 J Neurochem 76).
All culture media and sera are from ThermoFisher Scientific. Mouse embryonic fibroblasts (MEFs), PSEN1 knock-out (1 ko), PSEN1 and PSEN2 double knock-out (dKO, Herreman et al 2000 Nat Cell Biol 2), rescued 1 ko and dKO cell lines cells were routinely grown in Dulbecco's modified Eagle's medium (DMEM/F12) supplemented with 10% fetal calf serum (FCS). All cell lines were maintained in a humidified chamber with 5% CO2 at 37° C. […]
Cells were plated on glass coverslips, transfected 24 h later and processed for indirect immunolabeling the next day (Sannerud et al 2011 Proc Natl Acad Sci USA 108). […] ImageJ software with the plugin JACoP (Bolte and Cordelieres 2006 J Microsc 224) was used for signal overlap quantification (Mander's coefficient). Images were acquired with identical settings and regions of interest (ROI) covering whole cells were used for quantification.

PSEN1/g-secretase = PSEN1/g-secretase (Homo sapiens, UniProt P49768); experiment: Ab production in MEFs transfected with C99-3×FLAG (Western blot 82E1); parameters: expressed in transfected cells; conditions: 16 hours
Method: FIG. 5. Inhibitor dose-effect on Ab production. PSEN1 KO MEFs stably rescued with GFP-PSEN1 and transfected with C99-3×FLAG (6 h) were treated with different concentrations of (A, B) DAPT, or (C) L-685-458 as indicated. After 16 h, condition media and cell lysates were analyzed by Western blot using 82E1 monoclonal antibody to detect AP. Representative blot is shown in […] for DAPT treatment and quantification is shown in (B): mean+SEM, n=3 independent experiments. (C) PSEN1 KO MEFs. Quantification for L-685-458 is shown in (C), n=1.
Based on these new data, it is crucial to compare the sensitivity to g-secretase inhibitors of the g-secretase complex located in the late endosomes (producing intracellular Ab) and the broadly localised g-secretase complex (producing extracellular Ab). We therefore compared the dose-dependencies of translocated PSEN1/g-secretase with catalytic inhibition by DAPT. MEFs were transfected with APP-C99-3×FLAG for 6 hours and treated with different doses of DAPT. After 16 hours, conditioned media and cell lysates were collected and analysed by Western blotting for total secreted and intracellular Ab, respectively. This resulted for DAPT in a lower IC50 for secreted Ab inhibition (FIG. 5A-B).
Protein concentrations were determined by the Bio-Rad DC protein assay (Bio-Rad). Samples were separated by SDS-PAGE (4-12% Bis-Tris NuPAGE gels in MES running buffer (ThermoFisher Scientific) and transferred onto nitrocellulose membranes (ThermoFisher Scientific). After blocking in 5% non-fat milk, membranes were incubated with primary antibody (4° C., overnight) followed by washing and incubation with horseradish peroxidase (HRP)-conjugated secondary antibodies (1 h, room temperature). After final washing, immunodetection was done using enhanced chemiluminescence (Western Lightning-Plus ECL, PerkinElmer), and immunoreactive protein bands were digitally captured and quantified on a Fuji MiniLAS 3000 imager (Fuji, Dusseldorf, Germany) using Aida Image Analyzer software (Raytest, Germany). Data are represented as mean±SEM of at least three independent experiments.

[1] = target: T2, PSEN1/g-secretase complex (Homo sapiens, UniProt P49768); experiment: Relocation of GFP-PSEN1/g-secretase to LAMP1-positive late endosomes (confocal immunofluorescence)
T2 construct: expressed in transfected cells
Method: as §1
All culture media and sera are from ThermoFisher Scientific. Mouse embryonic fibroblasts (MEFs), PSEN1 knock-out (1 ko), PSEN1 and PSEN2 double knock-out (dKO, Herreman et al 2000 Nat Cell Biol 2), rescued 1 ko and dKO cell lines cells were routinely grown in Dulbecco's modified Eagle's medium (DMEM/F12) supplemented with 10% fetal calf serum (FCS). All cell lines were maintained in a humidified chamber with 5% CO2 at 37° C. Primary hippocampal neuron cultures are derived from E18 rat embryos (Esselens et al 2004 J Cell Biol 166). Stable rescued 1 ko and dKO cell lines were generated using replication-defective recombinant retroviral system (pMCSV vector, Clontech) expressing the gene of interest.
Cells were plated on glass coverslips, transfected 24 h later and processed for indirect immunolabeling the next day (Sannerud et al 2011 Proc Natl Acad Sci USA 108). Images were captured on a confocal microscope (Leica TCS SP5 II, Leica Microsystems) connected to an upright microscope, using an oil-immersion plan Apo 60× A/1.40 NA objective lens. Image acquisition was performed with LAS (Leica Microsystems). Images were further processed with ImageJ and PhotoshopCS6 (Adobe, Calif.). ImageJ software with the plugin JACoP (Bolte and Cordelieres 2006 J Microsc 224) was used for signal overlap quantification (Mander's coefficient). Images were acquired with identical settings and regions of interest (ROI) covering whole cells were used for quantification.

EGFP-PSEN2 in LAMP1-positive organelles, Mander's coefficient (PSEN2/g-secretase): no additional effect | ratio of EGFP-PSEN2 fluorescence within LAMP1-positive compartments over total (PSEN2/g-secretase): remained unaltered | IC50 (PSEN1/g-secretase; cell lysates, read-out: IC50 intracellular Ab): 0.021 µM | IC50 (PSEN1/g-secretase; conditioned media, read-out: IC50 for secreted Ab inhibition): 0.016 µM | EGFP-PSEN1 in LAMP1-positive organelles, Mander's coefficient ([1]; 1 μM, 16 hrs, PSEN1/PSEN2 dKO MEFs rescued with EGFP-PSEN1): threefold increase | increase in ratio of EGFP-PSEN1 fluorescence within LAMP1-positive compartments over total EGFP-PSEN1 ([1]; 1 μM, 16 hrs, dKO MEFs rescued with EGFP-PSEN1): 50% | reversibility of late endosomal relocation after wash-out ([1]; DAPT-containing medium replaced with fresh medium, 16 hrs): fully reversible | dose dependence of PSEN1/g-secretase relocation ([1]; between 1 and 1000 nM): clear dose response | fold increase by which PSEN1/g-secretase relocates ([1]; dose response, normalised to DMSO): almost two-fold
Compound: C[C@H](NC(=O)Cc1cc(F)cc(F)c1)C(=O)N[C@H](C(=O)OC(C)(C)C)c1ccccc1 [DAPT, N—[N-(3,5-difluorophenacetyl)-L-alanyl]-S-phenylglycine t-butyl ester]
internalized NCT (internalization kinetics) (NCT; 5, 10, 30 and 60 min): did not reveal significant differences in internalized NCT | amount of biotinylated NCT pulled down (NCT; 16 h time point): doubling of the amount of biotinylated NCT | translocation of the PSEN1/g-secretase complex to the late endosomes (Rel MFI) ([1]; 1 μM, FIG. 8): induce a translocation of the PSEN1/g-secretase complex to the late endosomes
